{
  "source": "patent US10703735B2",
  "about": "“4-phenyl-coumarin derivatives, processes for their preparation and uses thereof for the treatment of cancer” (Lead Discovery Center GmbH, priority 2018, dated 2020)",
  "data": [
    {"target": "mitochondrial RNA-polymerase (POLRMT) (Mus musculus, UniProt Q8BKF1)", "sequence (Q8BKF1 42-1207)": "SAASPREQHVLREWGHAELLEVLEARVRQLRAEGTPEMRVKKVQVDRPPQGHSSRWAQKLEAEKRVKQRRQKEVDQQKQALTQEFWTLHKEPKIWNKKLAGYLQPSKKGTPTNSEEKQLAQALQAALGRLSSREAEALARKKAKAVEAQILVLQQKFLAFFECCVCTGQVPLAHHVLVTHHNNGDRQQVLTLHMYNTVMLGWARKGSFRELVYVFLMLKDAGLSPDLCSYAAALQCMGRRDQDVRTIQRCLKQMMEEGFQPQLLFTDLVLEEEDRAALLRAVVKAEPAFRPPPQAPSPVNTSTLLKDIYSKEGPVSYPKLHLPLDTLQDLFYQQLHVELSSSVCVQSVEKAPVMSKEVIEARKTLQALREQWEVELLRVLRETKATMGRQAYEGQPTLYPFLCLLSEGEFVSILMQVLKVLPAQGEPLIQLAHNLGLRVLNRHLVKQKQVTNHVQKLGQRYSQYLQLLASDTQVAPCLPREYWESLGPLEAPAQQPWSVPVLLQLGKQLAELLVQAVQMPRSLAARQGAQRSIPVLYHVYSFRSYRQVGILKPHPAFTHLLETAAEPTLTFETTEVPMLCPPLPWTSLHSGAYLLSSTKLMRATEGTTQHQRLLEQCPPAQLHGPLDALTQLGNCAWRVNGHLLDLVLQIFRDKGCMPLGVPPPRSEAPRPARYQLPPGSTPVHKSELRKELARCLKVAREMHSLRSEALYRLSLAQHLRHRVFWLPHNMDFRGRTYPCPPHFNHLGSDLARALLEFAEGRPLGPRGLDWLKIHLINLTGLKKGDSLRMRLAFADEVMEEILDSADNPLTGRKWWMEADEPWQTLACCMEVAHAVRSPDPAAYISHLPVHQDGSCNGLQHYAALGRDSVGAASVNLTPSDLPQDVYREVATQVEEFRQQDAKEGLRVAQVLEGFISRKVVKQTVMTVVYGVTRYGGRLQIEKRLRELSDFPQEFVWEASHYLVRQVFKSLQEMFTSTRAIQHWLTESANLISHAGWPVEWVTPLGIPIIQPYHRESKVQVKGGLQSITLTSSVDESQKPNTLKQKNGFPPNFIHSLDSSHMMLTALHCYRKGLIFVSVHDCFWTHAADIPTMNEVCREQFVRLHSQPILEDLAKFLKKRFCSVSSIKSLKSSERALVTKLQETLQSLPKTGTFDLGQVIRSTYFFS", "assay": "Homogeneous TR-FRET assay for mitochondrial transcription activity", "type": "biochemical", "conditions": "homogeneous TR-FRET assay according to Example 4; read-out: mitochondrial transcription activity (IC-50)", "excerpt": "The TR-FRET assay was basically conducted as described in WO 2016/193231A1, especially as described in example 1 (hereby incorporated by reference). With respect to the background of the mitochondrial transcription it is referred to Falkenberg et al. (2002) and Posse et al. (Posse et al. 2015). The method monitors the activity of mitochondrial RNA-polymerase via detection of the formation of its product, a 407 bp long RNA sequence. Detection of the product is facilitated by hybridization of two DNA-oligonucleotide probes to specific and adjacent sequences within the RNA product sequence. Upon annealing of the probes, two fluorophores that are coupled directly to an acceptor nucleotide probe (ATT0647, 5′) or introduced via a coupled streptavidin interacting with a biotinylated donor nucleotide probe on the other side (Europium cryptate, 3) are brought into sufficient proximity to serve as a fluorescence-donor-acceptor pair as generally described in Walters and Namchuk (2003). Thus, a FRET signal at 665 nm is generated upon excitation at 340 nm.\nBriefly, the protocol described here was applied for screening and activity determination in a low-volume 384-well microtiter plate with non-binding surface. For high-throughput application in the 1536-well microtiter plate format, volumes of the reagent mixes were adjusted, maintaining the volumetric ratio. Proteins POLRMT (NM_172551.3), TFAM (NM_009360.4) and TFB2M (NM_008249.4) were diluted from their stocks to working concentrations of 150 nM, 1.8 μM and 330 nM respectively, in a dilution buffer containing 100 mM Tris-HCl pH 8.0, 200 mM NaCl, 10% (v/v) glycerole, 2 mM glutathione (GSH), 0.5 mM EDTA and 0.1 mg/mL BSA. Protein dilutions and template DNA, comprising a pUC18 plasmid encoding the mitochondrial light strand promoter, restriction linearized proximal to the promoter 3′-end (pUC-LSP), were mixed at the twofold final assay-concentration in a reaction buffer, containing 10 mM Tris-HCl pH 7.5, 10 mM MgCl2, 40 mM NaCl, 2 mM GSH, 0.01% (w/v) Tween-20 and 0.1 mg/mL BSA.\n5 μL of this mix were dispensed, depending on the chosen microtiter plate format, using multi-channel pipettes or a Multidrop® dispenser (Thermo Fisher Scientific, Waltham Mass.) into the wells of a microtiter plate and incubated at room temperature (RT) for 10 min. Chemical compounds under scrutiny in the assay were applied using contact-free acoustic droplet-dispensing (Echo520® Labcyte Inc., Sunnyvale Calif.) from 10 mM compound stocks in 100% DMSO, to a final concentration of 10 μM or in serial dilution series of the required concentration range. Equal amounts of DMSO without any compound were added to positive control samples, followed by an incubation step at RT for 10 min.\nThe enzymatic reaction was started by the addition of 5 μL of a mix of dNTPs in reaction buffer to a final concentration of 500 μM each. No nucleotide mix was added to negative control samples. The content of the wells was mixed using a VarioTeleshaker™ (Thermo Fisher Scientific, Waltham Mass.) at 1500 rpm for 45 sec after which the microtiter plate was centrifuged at 500×g for 1 min. The samples were incubated for 2 h at RT with humidity control to avoid evaporation. The detection reagents were prepared in a buffer that was composed, such that the enzymatic reaction was terminated due to chelating of Mg-ions and increased ionic strength, containing 50 mM Tris-HCl pH 7.5, 700 mM NaCl, 20 mM EDTA, and 0.01% (w/v) Tween-20. Importantly Eu-cryptate-coupled streptavidin had to be preincubated with a 100-fold molar excess of a random sequence oligonucleotide for 10 min at RT in the dark to block unspecific binding of single stranded RNA to the protein. Subsequently, the blocked streptavidin(-Eu) was mixed with the DNA-probes on ice and kept away from light until use. […]", "units": {"IC50": "µM"}, "values": [
      {"smiles": "CCCOC(=O)COc1ccc2c(-c3ccccc3)cc(=O)oc2c1", "note": "[Compound 74, propyl 2-(2-oxo-4-phenyl-chromen-7-yl)oxyacetate]", "IC50": "1 to 10"},
      {"smiles": "CCOC(=O)COc1cc2oc(=O)cc(-c3ccccc3)c2cc1Cl", "note": "[Compound 49, ethyl 2-(6-chloro-2-oxo-4-phenyl-chromen-7-yl)oxyacetate]", "IC50": "0.1 to 1"},
      {"smiles": "CCOCCOC(=O)COc1ccc2c(-c3ccccc3)cc(=O)oc2c1", "note": "[Compound 73, 2-ethoxyethyl 2-(2-oxo-4-phenyl-chromen-7-yl)oxyacetate]", "IC50": "1 to 10"},
      {"smiles": "CC(Oc1ccc2c(-c3ccccc3)cc(=O)oc2c1)C(=O)OCc1ccccc1", "note": "(stereo not shown) [Compound 93, benzyl 2-(2-oxo-4-phenyl-chromen-7-yl)oxypropanoate]", "IC50": "1 to 10"},
      {"smiles": "O=C(COc1cc2oc(=O)cc(-c3ccccc3)c2cc1Cl)NCC(O)c1ccccc1", "note": "(stereo not shown) [Compound 90, 2-(6-chloro-2-oxo-4-phenyl-chromen-7-yl)oxy-N-(2-hydroxy-2-phenyl-ethyl)acetamide]", "IC50": "1 to 10"},
      {"smiles": "CCOC(=O)[C@H]1CCCN(C(=O)[C@@H](C)Oc2ccc3c(-c4ccccc4)cc(=O)oc3c2)C1", "note": "[Compound 35, ethyl (3S)-1-[(2R)-2-(2-oxo-4-phenyl-chromen-7-yl)oxypropanoyl]piperidine-3-carboxylate]", "IC50": "0.1 to 1"},
      {"smiles": "CC(Oc1ccc2c(-c3ccccc3)cc(=O)oc2c1)C(=O)N1CCC[C@H](C(=O)O)C1", "note": "(stereo partly drawn) [Compound 36, (3S)-1-[2-(2-oxo-4-phenyl-chromen-7-yl)oxypropanoyl]piperidine-3-carboxylic acid]", "IC50": "0.1 to 1"},
      {"smiles": "CC(Oc1ccc2c(-c3ccccc3)cc(=O)oc2c1)C(=O)N1CCCC(C(N)=O)C1", "note": "(stereo not shown) [Compound 60, 1-[2-(2-oxo-4-phenyl-chromen-7-yl)oxypropanoyl]piperidine-3-carboxamide]", "IC50": "1 to 10"},
      {"smiles": "CC(Oc1ccc2c(-c3ccccc3)cc(=O)oc2c1)C(=O)N1CCCCC1", "note": "(stereo not shown) [Compound 39, 7-[1-methyl-2-oxo-2-(1-piperidyl)ethoxy]-4-phenyl-chromen-2-one]", "IC50": "0.1 to 1"},
      {"smiles": "NC(=O)COc1cc2oc(=O)cc(-c3ccccc3)c2cc1Cl", "note": "[Compound 84, 2-(6-chloro-2-oxo-4-phenyl-chromen-7-yl)oxyacetamide]", "IC50": "1 to 10"},
      {"smiles": "CCOC(=O)C1CCCN(C(=O)COc2ccc3c(-c4ccccc4)cc(=O)oc3c2)C1", "note": "(stereo not shown) [Compound 43, ethyl 1-[2-(2-oxo-4-phenyl-chromen-7-yl)oxyacetyl]piperidine-3-carboxylate]", "IC50": "1 to 10"},
      {"smiles": "CC(Oc1ccc2c(-c3ccccc3)cc(=O)oc2c1)C(=O)N1CCCC(C(=O)O)C1", "note": "(stereo not shown) [Compound 14, 1-[2-(2-oxo-4-phenyl-chromen-7-yl)oxypropanoyl]piperidine-3-carboxylic acid]", "IC50": "0.1 to 1"},
      {"smiles": "CCOC(=O)C(C)Oc1ccc2c(-c3ccc(Br)cc3)cc(=O)oc2c1", "note": "(stereo not shown) [Compound 41, ethyl 2-[4-(4-bromophenyl)-2-oxo-chromen-7-yl]oxypropanoate]", "IC50": "0.1 to 1"},
      {"smiles": "CC(Oc1ccc2c(-c3ccccc3)cc(=O)oc2c1)C(=O)NCC(O)c1ccccc1", "note": "(stereo not shown) [Compound 29, N-(2-hydroxy-2-phenyl-ethyl)-2-(2-oxo-4-phenyl-chromen-7-yl)oxy-propanamide]", "IC50": "1 to 10"},
      {"smiles": "COC(=O)C1CCN(C(=O)C(C)Oc2ccc3c(-c4ccccc4)cc(=O)oc3c2)CC1", "note": "(stereo not shown) [Compound 63, methyl 1-[2-(2-oxo-4-phenyl-chromen-7-yl)oxypropanoyl]piperidine-4-carboxylate]", "IC50": "1 to 10"},
      {"smiles": "CNC(=O)C1CCCN(C(=O)C(C)Oc2ccc3c(-c4ccccc4)cc(=O)oc3c2)C1", "note": "(stereo not shown) [Compound 62, N-methyl-1-[2-(2-oxo-4-phenyl-chromen-7-yl)oxypropanoyl]piperidine-3-carboxamide]", "IC50": "1 to 10"},
      {"smiles": "CC(Oc1ccc2c(-c3ccccc3)cc(=O)oc2c1)C(=O)N1CCC[C@@H](C(=O)O)C1", "note": "(stereo partly drawn) [Compound 37, (3R)-1-[2-(2-oxo-4-phenyl-chromen-7-yl)oxypropanoyl]piperidine-3-carboxylic acid]", "IC50": "1 to 10"},
      {"smiles": "O=C(COc1cc2oc(=O)cc(-c3ccccc3)c2cc1Cl)NC1CC1", "note": "[Compound 46, 2-(6-chloro-2-oxo-4-phenyl-chromen-7-yl)oxy-N-cyclopropyl-acetamide]", "IC50": "0.1 to 1"},
      {"smiles": "CCCc1cc2c(-c3ccccc3)cc(=O)oc2cc1OC(C)C(=O)O", "note": "(stereo not shown) [Compound 97, 2-(2-oxo-4-phenyl-6-propyl-chromen-7-yl)oxypropanoic acid]", "IC50": "1 to 10"},
      {"smiles": "CC(Oc1ccc2c(-c3ccccc3)cc(=O)oc2c1)C(=O)O", "note": "(stereo not shown) [Compound 51, 2-(2-oxo-4-phenyl-chromen-7-yl)oxypropanoic acid]", "IC50": "0.1 to 1"},
      {"smiles": "CCCOC(=O)COc1cc2oc(=O)cc(-c3ccccc3)c2cc1Cl", "note": "[Compound 92, propyl 2-(6-chloro-2-oxo-4-phenyl-chromen-7-yl)oxyacetate]", "IC50": "1 to 10"},
      {"smiles": "CC(Oc1cc(F)c2c(-c3ccccc3)cc(=O)oc2c1)C(=O)N(C)C", "note": "(stereo not shown) [Compound 80, 2-(5-fluoro-2-oxo-4-phenyl-chromen-7-yl)oxy-N,N-dimethyl-propanamide]", "IC50": "1 to 10"},
      {"smiles": "CC(Oc1cc2oc(=O)cc(-c3ccccc3)c2cc1Cl)C(=O)Nc1ccc(CCO)cc1", "note": "(stereo not shown) [Compound 17, 2-(6-chloro-2-oxo-4-phenyl-chromen-7-yl)oxy-N-[4-(2-hydroxyethyl)phenyl]propanamide]", "IC50": "0.1 to 1"},
      {"smiles": "NC(=O)COc1ccc2c(-c3ccccc3)cc(=O)oc2c1", "note": "[Compound 75, 2-(2-oxo-4-phenyl-chromen-7-yl)oxyacetamide]", "IC50": "1 to 10"},
      {"smiles": "CC(Oc1ccc2c(-c3ccccc3)cc(=O)oc2c1)C(=O)N(C)c1ccc(CCO)cc1", "note": "(stereo not shown) [Compound 18, N-[4-(2-hydroxyethyl)phenyl]-N-methyl-2-(2-oxo-4-phenyl-chromen-7-yl)oxy-propanamide]", "IC50": "0.1 to 1"},
      {"smiles": "CCN(CC)C(=O)COc1cc2oc(=O)cc(-c3ccccc3)c2cc1Cl", "note": "[Compound 47, 2-(6-chloro-2-oxo-4-phenyl-chromen-7-yl)oxy-N,N-diethyl-acetamide]", "IC50": "0.1 to 1"},
      {"smiles": "C[C@@H](Oc1ccc2c(-c3ccccc3)cc(=O)oc2c1)C(=O)O", "note": "[Compound 66, (2R)-2-(2-oxo-4-phenyl-chromen-7-yl)oxypropanoic acid]", "IC50": "1 to 10"},
      {"smiles": "CC(Oc1cc2oc(=O)cc(-c3ccccc3)c2cc1Cl)C(=O)NCCN1CCOCC1", "note": "(stereo not shown) [Compound 79, 2-(6-chloro-2-oxo-4-phenyl-chromen-7-yl)oxy-N-(2-morpholinoethyl)propanamide]", "IC50": "1 to 10"},
      {"smiles": "Cc1c(OCC(=O)OC(C)(C)C)ccc2c(-c3ccccc3)cc(=O)oc12", "note": "[Compound 94, tert-butyl 2-(8-methyl-2-oxo-4-phenyl-chromen-7-yl)oxyacetate]", "IC50": "1 to 10"},
      {"smiles": "CC(Oc1ccc2c(-c3ccccc3)cc(=O)oc2c1)C(=O)N1CCCC(c2nn[nH]n2)C1", "note": "(stereo not shown) [Compound 20, 7-[1-methyl-2-oxo-2-[3-(2H-tetrazol-5-yl)-1-piperidyl]ethoxy]-4-phenyl-chromen-2-one]", "IC50": "< 0.02"},
      {"smiles": "CC(Oc1cc2oc(=O)cc(-c3ccccc3)c2cc1Cl)C(=O)NC[C@H]1CC[C@H](C(=O)O)CC1", "note": "(stereo partly shown) [Compound 89, 4-[[2-(6-chloro-2-oxo-4-phenyl-chromen-7-yl)oxypropanoylamino]methyl]cyclohexanecarboxylic acid]", "IC50": "1 to 10"},
      {"smiles": "COC(=O)C(C)Oc1ccc2c(-c3ccccc3)cc(=O)oc2c1", "note": "(stereo not shown) [Compound 56, methyl 2-(2-oxo-4-phenyl-chromen-7-yl)oxypropanoate]", "IC50": "0.1 to 1"},
      {"smiles": "CN(C(=O)COc1ccc2c(-c3ccccc3)cc(=O)oc2c1)c1ccc(CCO)cc1", "note": "[Compound 40, N-[4-(2-hydroxyethyl)phenyl]-N-methyl-2-(2-oxo-4-phenyl-chromen-7-yl)oxy-acetamide]", "IC50": "0.1 to 1"},
      {"smiles": "CC(Oc1ccc2c(-c3ccccc3)cc(=O)oc2c1)C(=O)Nc1ccccc1", "note": "(stereo not shown) [Compound 25, 2-(2-oxo-4-phenyl-chromen-7-yl)oxy-N-phenyl-propanamide]", "IC50": "0.1 to 1"}
    ]}
  ]
}
